According to patent US20120202891A1, “Cannabinoid-Containing Compositions and Methods for Their Use” (UNIVERSITY OF KENTUCKY RESEARCH FOUNDATION, priority 2009, published 2012):
Where “and” joins values, the source holds several entries; their conditions need not be identical. Equal entries are not always repeated. Entries after “also recorded” stand apart in the source; their conditions may differ. Where two headings read alike, the source gives them in different places. Marks after values point to notes of the source that are not given here.

Legend:
[1] = system: CFA mono-arthritic knee joints in Sprague-Dawley rats; assay: Knee joint circumference in CFA-induced monoarthritis; assay type: in vivo, rat; conditions: Post-CBD, four consecutive days (day 4), mean ± SD
[2] = system: CFA mono-arthritic knee joints in Sprague-Dawley rats; assay: Knee joint temperature in CFA-induced monoarthritis; assay type: in vivo, rat; conditions: for Knee joint temperature: Post-CBD, four consecutive days (day 4), mean ± SD
[3] = system: rats with CFA induced mono-arthritis; assay: Secondary thermal hyperalgesia, paw withdrawal latency (PWL) test, CFA rats; assay type: in vivo, rat
normal rats = assay: Paw withdrawal latency (PWL) test, normal rats; assay type: in vivo, rat; conditions: any CBD dose (0.6, 3.1, 6.2 mg/d)
Procedure: Secondary thermal hyperalgesia was assessed with the paw withdrawal latency (PWL) test (Hargreaves et al. (1988) Pain 32: 77-88). PWLs were measured in response to a radiant heat source shone on one hind paw of the animals from beneath a glass top table. A shortened PWL response in animals with knee joint inflammation was indicative of secondary thermal hyperalgesia. Animals were placed in separate plastic cubicles (4×4×10 in) on a glass top table (2 mm thickness of glass) and allowed to adapt to their new environment for 20-30 min before testing. A small movable metal box that focused a high-intensity light beam through an aperture (0.5 cm×0.5 cm) was attached to an on/off switch and a digital timer. […] At that time, the light is switched off and the number of seconds on the digital timer recorded as the PWL (sec). […] A mean of the 5 trials was calculated for each animal. […]
(§1) Baseline parameters (body weight, knee joint temperature, and knee joint circumference) were obtained before the knee injection of rats with CFA. […] Exploratory activity was monitored prior to initial gel application and on the third day post gel application (after 6 h). […] Blood samples were obtained for CBD plasma quantification, and tissues (knee joints, dorsal root ganglia, spinal cord, brain) were collected after perfusion. […]

normal (non-CFA) rats = assay: Open field exploratory behavioral activity; assay type: in vivo, rat; conditions: 0.6 to 62.3 mg/d, pre-dose versus post-dose and among dose groups
Procedure: Exploratory behavioral activity of the rats was monitored using the Flexfield Animal Activity System (San Diego Instruments; San Diego, Calif.) with a Photobeam Activity System software coupled to a computer according to previously published methods by Zhang et al., (2004) Pharmacol Biochem Behav 77: 145-153. Briefly, six main parameters were recorded: rearing events and rearing time, active time and resting time, total activity (i.e. number of photobeams disturbed in the x-y-z planes while the rat was moving around in the box or involved in stationary movement such as grooming), and distance traveled. Activity testing was conducted in an isolated, temperature controlled area at similar times daily in order to provide consistent results.
as §1, with “CFA. PWL test and exploratory activity testing were also conducted prior to CFA injection. Rats were anesthetized with a short term anesthetic and the left knee joint cavity was injected with CFA for induction of mono-arthritis.” for “CFA.”

[4] = Plasma CBD concentration after topical gel application (LC/MS); assay type: in vivo, rat; conditions: plasma concentration versus dose, 0.6, 3.1 and 6.2 mg/d
Procedure: Baseline parameters (body weight, knee joint temperature, and knee joint circumference) were obtained before the knee injection of rats with CFA. PWL test and exploratory activity testing were also conducted prior to CFA injection. Rats were anesthetized with a short term anesthetic and the left knee joint cavity was injected with CFA for induction of mono-arthritis. On day 3, the back of each animal was shaved. […] Rats received daily treatments for four consecutive days of either vehicle gel, or CBD gel. Gel was applied to the skin in a templated region on the dorsal surface of the rat and rubbed into the skin for 30 sec to ensure complete coverage. The nitrile template was used to ensure specific area reproducibility. […] Exploratory activity was monitored prior to initial gel application and on the third day post gel application (after 6 h). […] Blood samples were obtained for CBD plasma quantification, and tissues (knee joints, dorsal root ganglia, spinal cord, brain) were collected after perfusion. […]
The LC/MS system used to analyze samples was comprised of a Waters Alliance 2695 pump and autosampler, a Micromass™ ZQ detector, and 996 photodiode array detector with MassLynx™ software (Waters Corp., Milford, Mass.). […] The ZQ detector was used with an electrospray ionization (ESI) probe set for single ion monitoring (SIM) for cannabidiol quantification. […]

[5] = cited from earlier work
[6] = hairless guinea pigs, 1% hydroalcoholic CBD gel, up to 8 h post application; cited from earlier work
CB2 = CB2 (Homo sapiens, UniProt P34972); conditions: cited from earlier work
Chain of CB2 (P34972 whole entry, species assumed): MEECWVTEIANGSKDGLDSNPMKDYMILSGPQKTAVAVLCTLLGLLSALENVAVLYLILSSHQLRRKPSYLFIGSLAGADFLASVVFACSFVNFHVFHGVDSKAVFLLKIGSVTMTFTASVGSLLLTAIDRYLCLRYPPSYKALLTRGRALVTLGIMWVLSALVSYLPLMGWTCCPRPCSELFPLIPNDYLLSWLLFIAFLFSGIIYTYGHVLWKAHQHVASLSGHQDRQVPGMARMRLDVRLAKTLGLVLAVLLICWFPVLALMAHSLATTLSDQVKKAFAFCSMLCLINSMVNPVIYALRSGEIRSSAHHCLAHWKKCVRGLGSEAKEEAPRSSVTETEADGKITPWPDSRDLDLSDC

In the case of `C=C(C)C1CCC(C)=CC1c1c(O)cc(CCCCC)cc1O` (stereo not drawn) [CBD, 2-[3-methyl-6-(1-methylethenyl)-2-cyclohexen-1-yl]-5-pentyl-1,3-benzenedi-ol], the Knee joint circumference ([1]; 0.6 mg/d CBD gel on skin) is reported as 7.0 ± 0.3^b cm, the Knee joint circumference ([1]; 3.1 mg/d CBD gel on skin) is reported as 7.1 ± 0.3^b cm and the Knee joint circumference ([1]; 6.2 mg/d CBD gel on skin) is reported as 6.6±0.2 cm and 6.6 ± 0.2^b* cm. For the same compound, the Knee joint circumference ([1]; 62.3 mg/d CBD gel on skin) was 6.6±0.1 cm and 6.6 ± 0.1^a* cm, the “Differences in knee joint temperature among the treatment groups” value ([2]; 0.6 to 62.3 mg/d CBD versus vehicle gel, p>0.05) was “no significant differences” and the Knee joint temperature ([2]; 0.6 mg/d) was 31.2 ± 0.7^b ° C. For the same compound, the Knee joint temperature ([2]; 3.1 mg/d) was 30.6 ± 0.6^b ° C, the Knee joint temperature ([2]; 6.2 mg/d) was 31.7 ± 2.1^b ° C and the Knee joint temperature ([2]; 62.3 mg/d) was 30.2 ± 0.9^a ° C. The “PWL scores, improvement” value ([3]; 0.6 mg/d and 3.1 mg/d, day 4) was “did not have improved PWL scores”, the “PWL, improvement compared to CFA rats receiving vehicle gel” value ([3]; 6.2 mg/d, 4 h (d 1) post CBD dosing, p<0.05) was “improvement” and the “Effect on PWL in normal animals” value (normal rats) was “no effect; also recorded: not affected”. The “Exploratory activities, six parameters (rearing events, rearing time, total beams broken, distance traveled, active time, resting time), differences” value (normal (non-CFA) rats) was “No significant (p>0.05) differences; also recorded: no differences in activity measurements”, the “Linear pharmacokinetic correlation, slope” value [4] was 1.0 and the Cmax plasma concentration ([5]; hairless guinea pigs dosed once with 6.2 mg/d CBD gel, n=3) was 45.8 ± 8.4 ng/mL. For the same compound, the Cmax plasma concentration ([5]; hairless guinea pigs, 6.2 mg/d CBD gel, after 3 consecutive days of gel application, n=5) was 85.6 ± 48.4 ng/mL, the “Time out to which CBD plasma concentrations were detected” value ([5]; hairless guinea pigs, after a single initial gel application) was 120 h and the Tmax ([5]; hairless guinea pigs, multiple applications) was 40.0 ± 14.5 h. The Tmax ([5]; hairless guinea pigs, single application) was 6.7 ± 2.1 h, the “Residual drug remaining on the skin surface” value [6] was “approximately 15%” and the “Binding affinity for CB2” value (CB2) was “little binding affinity”.
